From US7504401B2, “Anti-cancer agents and uses thereof” (Locus Pharmaceuticals, Inc., priority 2003, dated 2009)
pIC50: −log10 of the molar value.

Assays:
Assay type in all cases: cell-based
[1] = test system: MCF-7 breast cancer cells; assay: Cell cycle assay, flow cytometry with propidium iodide, Example 126; conditions: MCF-7 cells, 24 h, 0.5% FCS, Table 2
Description: (§1) MCF-7 breast cancer cells and Jurkat T-cell leukemic cells were grown (and maintained) in EMEM and RPMI media, respectively, containing 10% fetal calf serum.
Cells were allowed to adhere for 24 hrs. After adherence, cell culture media was changed to that containing 0.5% FCS. Thirty minutes post-media change, test compounds were added at a concentration of 1 μM. Twenty-fours after test agent addition, cells were analyzed for cell cycle status as described below.
(§2) Cell cycle status was analyzed by flow cytometry. Briefly, cells were collected and washed with FACs buffer (Pharmingen) and resuspended and fixed in 1 mL of 80% ethanol for 1 hr. Cells were washed with FACs buffer and resuspended in propidium iodide(PI)/RNase staining buffer (Pharmingen). PI is a fluorescent dye that labels nucleic acids such as DNA. The fluorescence within a cell (in the presence of PI) is proportional to the amount of DNA within a cell. The cell content of DNA is an indices of status in the cell cycle. […] Cells in the S phase have DNA content that lies between these extremes.
(§3) For testing of cell cycle effects of test agents the percentage of cells within the G1 and G2/M phase were measured.

[2] = test system: Jurkat T-cell leukemic cells; assay: as above; conditions: 24 h, 0.5% serum, Table 2
Description: as §1
Test agents were added a concentration of 0.1 μM. Twenty-fours after test agent addition, cells were analyzed for cell cycle status as described below.
as §2, §3

[3] = test system: Hela cells; assay: Cell viability assay (WST-1 colorimetric mitochondrial reduction), Example 125; conditions: Homo sapiens, 0.5% fetal calf serum, 48-72 hrs
Description: Jurkat and Hela cells were cultured in RPMI and EMEM media, respectively, containing 0.5% fetal calf serum. Cells were plated in a volume of 100 μL in a 96 well format. Test compounds were included in the culture media at concentrations ranging from 1 nM to 10 μM for a period of 48-72 hrs. […] Briefly, 10 μL of WST-1 reagent was included in the culture well for a period of 1 to 4 hrs. The WST-1 reaction was read on a multiwell spectrophotometer as the difference in the absorbance between 450 nm and 600 nm (baseline). Absorbance was proportional to the number of living cells in the culture well. Concentration response curves and IC50 values were calculated using GraphPAD Prism graphing and curve fitting program.

Row | pIC50 [3] | SMILES | MCF-7 G2/M Block 1 μM [1] | Jurkat G2/M Block 0.1 μM [2]
1 |  | [O-][n+]1cccc(Nc2cc(O)cc(-c3cccc4[nH]ccc34)c2)c1 [3-(1H-Indol-4-yl)-5-(1-oxy-pyridin-3-ylamino)-phenol] | Y (Y indicates a 50% or greater increase in the number of cells in the G2/M phase, as compared to control) | Y (Y indicates a 50% or greater increase in the number of cells in the G2/M phase, as compared to control)
2 | 4.52 to 6.00 | CC(=O)N(c1cccnc1)c1cccc(-c2cccc3[nH]ccc23)c1 [N-[3-(1H-Indol-4-yl)-phenyl]-N-pyridin-3-yl-acetamide] |  | 
